From US9926318B2, “Tetracyclic autotaxin inhibitors” (PharmAkea, Inc., priority 2013, dated 2018)

Molecular target: human autotaxin (ATX) (Homo sapiens (Human), UniProt Q13822)
Test: Human autotaxin assay (choline release from LPC, Hep3B conditioned media)
Type: biochemical
Conditions: concentrated conditioned media from Hep3B cells, LPC substrate
Protocol: ATX activity is assayed in concentrated conditioned media from Hep3B human hepatocellular carcinoma cells by measuring the amount of choline released from the substrate, lysophosphatidylcholine (LPC) as it is cleaved to LPA. Conditioned media is collected from confluent Hep3B cells and concentrated 20-fold using Centriprep-30 filter devices (Millipore). […] 100 μl of a color mix containing 4.5 mM 4-aminoantipyrine, 2.7 mM N-ethyl-N-(2-hydroxy-3-sulfopropyl)-m-toluidine, 21 units/ml horseradish peroxidase and 3 units/ml choline oxidase in 50 mM Tris, pH 8, 4.5 mM MgCl2 is added and the incubation continued for 15 minutes at room temperature before reading the absorbance at 555 nm.

Compound | IC50 [nM]
CC(C)(CC(=O)O)CN1C(=O)[C@@H]2Cc3c(n(Cc4ccc(F)cc4)c4ccccc34)CN2C1=O [Compound 1-42, (S)-4-(6-(4-fluorobenzyl)-1,3-dioxo-5,6,11,11a-tetrahydro-1H-imidazo[1′,5′:1,6]pyrido[3,4-b]indol-2(3H)-yl)-3,3-dimethylbutanoic acid] | < 500
O=C(O)CCN1C(=O)[C@@H]2Cc3c(n(Cc4ccc(Cl)nc4)c4ccccc34)CN2C1=O [Compound 1-84, (S)-3-(6-((6-chloropyridin-3-yl)methyl)-1,3-dioxo-5,6,11,11a-tetrahydro-1H-imidazo[1′,5′:1,6]pyrido[3,4-b]indol-2(3H)-yl)propanoic acid] | < 500
O=C(O)CCN1C(=O)[C@@H]2Cc3c(n(Cc4cnc(C(F)(F)F)s4)c4ccccc34)CN2C1=O [Compound 1-102, (S)-3-(1,3-dioxo-6-((2-(trifluoromethyl)thiazol-5-yl)methyl)-11,11a-dihydro-1H-imidazo[1′,5′:1,6]pyrido[3,4-b]indol-2(3H,5H,6H)-yl)propanoic acid] | < 500
O=C1C2Cc3c(n(Cc4ccc(F)cc4)c4ccccc34)CN2C(=O)N1CCO (stereo not shown) [Compound 1-121, 6-(4-fluorobenzyl)-2-(2-hydroxyethyl)-5,6,11,11a-tetrahydro-1H-imidazo[1′,5′:1,6]pyrido[3,4-b]indole-1,3(2H)-dione] | < 500
O=C1NC(=O)N2Cc3c(c4ccccc4n3Cc3ccc(F)cc3)C[C@@H]12 [Compound 1-130, (S)-6-(4-fluorobenzyl)-5,6,11,11a-tetrahydro-1H-imidazo[1′,5′:1,6]pyrido[3,4-b]indole-1,3(2H)-dione] | < 500
COc1ccc(Cn2c3c(c4ccccc42)C[C@H]2C(=O)N(CCC(=O)O)C(=O)N2C3)cc1 [Compound 1-131, (S)-3-(6-(4-methoxybenzyl)-1,3-dioxo-11,11a-dihydro-1H-imidazo[1′,5′:1,6]pyrido[3,4-b]indol-2(3H,5H,6H)-yl)propanoic acid] | < 500
O=C(O)CCN1C(=O)[C@@H]2Cc3c(n(Cc4ccc(Cl)cc4Cl)c4ccccc34)CN2C1=O [Compound 1-132, (S)-3-(6-(2,4-dichlorobenzyl)-1,3-dioxo-11,11a-dihydro-1H-imidazo[1′,5′:1,6]pyrido[3,4-b]indol-2(3H,5H,6H)-yl)propanoic acid] | < 500
O=C(O)CCN1C(=O)[C@@H]2Cc3c(n(Cc4ccc(Cl)cc4F)c4ccccc34)CN2C1=O [Compound 1-133, (S)-3-(6-(4-chloro-2-fluorobenzyl)-1,3-dioxo-11,11a-dihydro-1H-imidazo[1′,5′:1,6]pyrido[3,4-b]indol-2(3H,5H,6H)-yl)propanoic acid] | < 500
O=C(O)CCN1C(=O)[C@@H]2Cc3c(n(Cc4ccc(F)cc4F)c4ccccc34)CN2C1=O [Compound 1-134, (S)-3-(6-(2,4-difluorobenzyl)-1,3-dioxo-11,11a-dihydro-1H-imidazo[1′,5′:1,6]pyrido[3,4-b]indol-2(3H,5H,6H)-yl)propanoic acid] | < 500
O=C(O)CCN1C(=O)[C@@H]2Cc3c(n(Cc4ccc(F)nc4)c4ccccc34)CN2C1=O [Compound 1-135, (S)-3-(6-((6-fluoropyridin-3-yl)methyl)-1,3-dioxo-11,11a-dihydro-1H-imidazo[1′,5′:1,6]pyrido[3,4-b]indol-2(3H,5H,6H)-yl)propanoic acid] | < 500
O=C(O)CCN1C(=O)N2Cc3c(c4ccccc4n3Cc3ccc(F)cc3)C[C@H]2C1=S [Compound 1-141, (S)-3(6-(4-fluorobenzyl)-3-oxo-1-thioxo-5,6,11,11a-tetrahydro-1H-imidazo[1′,5′:1,6]pyrido[3,4-b]indol-2(3H)-yl)propanoic acid] | > 1000
CS(=O)(=O)NC(=O)CCN1C(=O)[C@@H]2Cc3c(n(Cc4ccc(F)cc4)c4ccccc34)CN2C1=O [Compound 1-142, (S)-3-(6-(4-fluorobenzyl)-1,3-dioxo-11,11a-dihydro-1H-imidazo[1′,5′:1,6]pyrido[3,4-b]indol-2(3H,5H,6H)-yl)-N-(methylsulfonyl)propanamide] | < 500
O=C(CCN1C(=O)[C@@H]2Cc3c(n(Cc4ccc(F)cc4)c4ccccc34)CN2C1=O)NS(=O)(=O)c1ccccc1 [Compound 1-143, (S)-3-(6-(4-fluorobenzyl)-1,3-dioxo-11,11a-dihydro-1H-imidazo[1′,5′:1,6]pyrido[3,4-b]indol-2(3H,5H,6H)-yl)-N-(phenylsulfonyl)propanamide] | < 500
CC1(C)c2c(n(Cc3ccc(F)cc3)c3ccccc23)CN2C(=O)N(CCC(=O)O)C(=O)C21 (stereo not shown) [Compound A11, 3-(6-(4-fluorobenzyl)-11,11-dimethyl-1,3-dioxo-5,6,11,11a-tetrahydro-1H-imidazo[1′,5′:1,6]pyrido[3,4-b]indol-2(3H)-yl)propanoic acid] | < 500
CC12Cc3c(n(Cc4ccc(F)cc4)c4ccccc34)CN1C(=O)N(CCC(=O)O)C2=O (stereo not shown) [Compound A113, 3-(6-(4-fluorobenzyl)-11a-methyl-1,3-dioxo-11,11a-dihydro-1H-imidazo[1′,5′:1,6]pyrido[3,4-b]indol-2(3H,5H,6H)-yl)propanoic acid] | > 1000
CC1(C)c2c(n(Cc3ccc(F)cc3)c3ncccc23)CN2C(=O)N(CCC(=O)O)C(=O)C21 (stereo not shown) [Compound C11, 3-{8-[(p-fluorophenyl)methyl]-16,16-dimethyl-12,14-dioxo-6.8.11.13-tetrazatetracyclo[7.7.0.02,7.011,15]hexadeca-1(9),2(7),3,5-tetraene-13-yl}propionic acid] | < 500
O=C1NC(=O)N2Cc3c(c4cccnc4n3Cc3ccc(F)cc3)CC12 (stereo not shown) [Compound C109] | < 500
CC(C)(CN1C(=O)C2Cc3c(n(Cc4ccc(F)cc4)c4ncccc34)CN2C1=O)C(=O)O (stereo not shown) [Compound C111, 3-{8-[(p-fluorophenyl)methyl]-12,14-dioxo-6.8.11.13-tetrazatetracyclo[7.7.0.02,7.011,15]hexadeca-1(9),2(7),3,5-tetraene-13-yl}-2,2-dimethyl propionic acid] | < 500
O=C(O)CCN1C(=O)C2Cc3c(n(Cc4ccc(F)cc4)c4ncccc34)CN2C1=O (stereo not shown) [Compound C114, 3-{8-[(4-fluorophenyl)methyl]-12,14-dioxo-6.8.11.13-tetraazatetracyclo[7.7.0.02, 7.011,15]hexadeca-1(9),2(7),3,5-tetraen-13-yl}propionic acid] | < 500
O=C(O)CCN1C(=O)[C@@H]2Cc3c(n(Cc4ccc(F)cc4)c4ccccc34)CN2C1=S [Compound E1, (S)-3-(6-(4-fluorobenzyl)-1-oxo-3-thioxo-5,6,11,11a-tetrahydro-1H-imidazo[1′,5′:1,6]pyrido[3,4-b]indol-2(3H)-yl)propanoic acid] | > 1000
O=C1NC(=S)N2Cc3c(c4ccccc4n3Cc3ccc(F)cc3)C[C@@H]12 [Compound E2, (S)-6-(4-fluorobenzyl)-3-thioxo-2,3,5,6,11,11a-hexahydro-1H-imidazo[1′,5′:1,6]pyrido[3,4-b]indol-1-one] | < 500
O=C1NC(=S)N2Cc3c(c4cccnc4n3Cc3ccc(F)cc3)CC12 (stereo not shown) [Compound E3] | < 500
